Results published in patent US20230373934A1, “ANDROGEN RECEPTOR MODULATORS AND METHODS FOR THEIR USE” (ESSA Pharma, Inc., priority 2022, published 2023).

Legend:
androgen receptor (AR) [1] = target: T1, androgen receptor (AR) (Homo sapiens, UniProt P10275, T878A); test: Androgen-induced PSA-luciferase assay, Luciferase Assay A (LNCaP transiently transfected with PSA (6.1 kb)-luciferase reporter); assay type: cell-based; settings: LNCaP cells, 1 h pretreatment, R1881 (1 nM) 24 h, read-out: PSA-Luc IC50 Range
T1 construct: endogenous in cells; host or cells: LNCaP
T1 sequence (P10275 1-920 T878A): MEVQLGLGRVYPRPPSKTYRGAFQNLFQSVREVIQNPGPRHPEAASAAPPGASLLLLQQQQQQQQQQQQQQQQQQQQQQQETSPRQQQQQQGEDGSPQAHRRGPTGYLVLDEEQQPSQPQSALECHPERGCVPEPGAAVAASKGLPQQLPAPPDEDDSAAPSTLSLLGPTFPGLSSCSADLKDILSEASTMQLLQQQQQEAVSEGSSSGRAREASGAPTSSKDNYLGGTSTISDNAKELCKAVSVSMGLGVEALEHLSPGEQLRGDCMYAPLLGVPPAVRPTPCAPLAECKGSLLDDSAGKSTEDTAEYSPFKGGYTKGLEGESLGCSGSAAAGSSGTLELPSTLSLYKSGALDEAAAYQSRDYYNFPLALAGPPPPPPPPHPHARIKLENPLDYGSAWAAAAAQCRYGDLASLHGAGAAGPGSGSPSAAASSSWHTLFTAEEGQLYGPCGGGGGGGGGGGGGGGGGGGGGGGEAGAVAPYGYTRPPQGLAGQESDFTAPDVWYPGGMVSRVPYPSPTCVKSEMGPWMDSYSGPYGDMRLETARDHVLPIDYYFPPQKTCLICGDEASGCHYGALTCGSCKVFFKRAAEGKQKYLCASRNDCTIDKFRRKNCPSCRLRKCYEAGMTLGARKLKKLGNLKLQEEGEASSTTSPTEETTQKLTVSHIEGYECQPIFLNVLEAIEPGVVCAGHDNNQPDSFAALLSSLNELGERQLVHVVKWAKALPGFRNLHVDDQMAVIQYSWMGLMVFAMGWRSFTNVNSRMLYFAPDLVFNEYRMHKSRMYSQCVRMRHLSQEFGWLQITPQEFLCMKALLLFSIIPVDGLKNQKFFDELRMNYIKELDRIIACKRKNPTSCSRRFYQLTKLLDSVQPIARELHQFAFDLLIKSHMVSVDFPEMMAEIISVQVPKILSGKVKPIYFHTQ
Description: The PSA (6.1 kb)-luciferase reporter contains functional AREs (androgen response elements) to which AR binds in response to androgen to induce luciferase activity. LNCaP cells were transiently transfected with the PSA (6.1 kb)-luciferase reporter for 24 h, and then pretreated with vehicle (DMSO) or indicated concentration of representative compounds for one hour prior to the addition of synthetic androgen, R1881 (1 nM). After 24 h of incubation with R1881, the cells were harvested, and relative luciferase activities were determined (FIG. 1). To determine the IC50, treatments were normalized to vehicle control activity induced by R1881 (Table 2).
Luciferase Assay A: Cells were lysed using Passive Lysis Buffer (Promega) and then collected into V-bottom 96-well tissue culture plates. Lysates were centrifuged at 4° C. for 5 minutes at 3000 rpm. To measure luminescence of LNCaP cell lysates the Firefly Luciferase Assay System (Promega) was employed, according to manufacturer's protocol. Relative luminescence units (RLU) in cell lysates were detected for 10 seconds using Promega GloMax-Multi Detection Luminometer (Promega). Values were normalized to protein content. GraphPad Prism graphing software was used to calculate IC50 values. Luciferase Assay A was run for all compounds in Table 2 unless otherwise noted below.
(§1) Statistical analyses were performed using GraphPad Prism (Version 6.01 for Windows; La Jolla, CA, USA). Comparisons between treatment and control groups were compared using Two-Way ANOVA with post-hoc Dunnett's and Tukey's tests. Differences were considered statistically significant at P values less than 0.05.

androgen receptor (AR) [2] = target: T2, androgen receptor (AR) (Homo sapiens, UniProt P10275); test: Androgen-induced PSA-luciferase assay, Luciferase Assay B (cells stably expressing ARR2PB or PSA-firefly luciferase reporter, 384-well); assay type: cell-based; settings: Luciferase Assay B (Compounds A186-A219 and A221-A245); stable luciferase reporter cells, 1 h pretreatment, R1881 24 h, serum-free; read-out: PSA-Luc IC50 Range
T2 sequence (P10275 1-920 T878A): T1 sequence (P10275 1-920 T878A)
Description: Luciferase Assay B: Cells stably expressing probasin promoter (ARR2PB) or human prostate-specific antigen (PSA)-firefly luciferase reporter were plated in poly-D-lysine-coated 384-well plates. 48 h after plating, cells were pretreated with vehicle or compounds for 1 h before adding R1881 under serum-free and phenol red-free conditions and then further incubated for 24 h. R1881 was added only for LNCaP cells. Firefly luciferase activities were determined by EnVision plate reader (Perkinemer) using the Steady-Glo Luciferase Reporter Assay System (Promega). Values were normalized to protein content. GraphPad Prism graphing software was used to calculate IC50 values. Luciferase Assay B was run for Compounds A186-A219 and A221-A245 in Table 2.
as §1

SMILES	IC50 (androgen receptor (AR) [1])	IC50 (androgen receptor (AR) [2])
CN(c1nccc(Oc2ccc(C(C)(C)c3cc(Cl)c(OCCCl)c(C#N)c3)cc2)n1)S(C)(=O)=O [Compound A135]	500 to 2000 nM	–
CC(C)(c1ccc(OCc2ccnc(NS(C)(=O)=O)n2)cc1)c1cc(Cl)c(CCCl)c(C#N)c1 [Compound A136]	500 to 2000 nM	–
CS(=O)(=O)N1CC2(CC(Oc3ccc(Oc4cc(Cl)c(OCCCl)c(C#N)c4)cc3)C2)C1 [Compound A137]	500 to 2000 nM	–
CC(C)(c1ccc(-c2cnc(N3CCC34CN(S(C)(=O)=O)C4)nc2)cc1)c1cc(Cl)c(OCCCl)c(C#N)c1 [Compound A138]	500 to 2000 nM	–
CC(C)(c1ccc(OCc2ccnc(NS(C)(=O)=O)n2)cc1)c1cc(Cl)c(OCCCOC(=O)Nc2ccccc2)c(C#N)c1 [Compound A139]	500 to 2000 nM	–
CC(C)(c1ccc(OC2CC3(C2)CN(S(C)(=O)=O)C3)cc1)c1cc(Cl)c(N2CCOCC2)c(C#N)c1 [Compound A140]	500 to 2000 nM	–
CC(C)(c1ccc(OC2CC3(C2)CN(S(C)(=O)=O)C3)cc1)c1cc(Cl)c(OC2CC2)c(C#N)c1 [Compound A141]	500 to 2000 nM	–
CC(C)(c1ccc(OCC23CC(NS(C)(=O)=O)(C2)C3)cc1)c1cc(Cl)c(N2CCOCC2)c(C#N)c1 [Compound A142]	500 to 2000 nM	–
CC(C)(c1ccc(OCC23CC(NS(C)(=O)=O)(C2)C3)cc1)c1cc(Cl)c(OC2CC2)c(C#N)c1 [Compound A143]	500 to 2000 nM	–
CC(C)(c1ccc(OCc2ccnc(NS(C)(=O)=O)n2)cc1)c1cc(Cl)c(OCC2CCC2)c(C#N)c1 [Compound A146]	500 to 2000 nM	–
CC(C)(c1ccc(OCc2ccnc(NS(C)(=O)=O)n2)cc1)c1cc(Cl)c(OCC2CC2)c(C#N)c1 [Compound A147]	500 to 2000 nM	–
CC(C)(c1ccc(OCc2ccnc(NS(C)(=O)=O)n2)cc1)c1cc(Cl)c(N2CCOC3(CC3)C2)c(C#N)c1 [Compound A148]	500 to 2000 nM	–
CC(C)(c1ccc(OCc2ccnc(NS(C)(=O)=O)n2)cc1)c1cc(Cl)c(N2CC3CC2CO3)c(C#N)c1 (centres unmarked) [Compound A149]	500 to 2000 nM	–
CC(C)(c1ccc(OC2CC3(CC(NS(C)(=O)=O)C3)C2)cc1)c1cc(Cl)c(OCCCl)c(C#N)c1 (centres unmarked) [Compound A150]	500 to 2000 nM	–
CC(C)(c1ccc(-c2cnc(NC3CCN(S(C)(=O)=O)CC3)nc2)cc1)c1cc(Cl)c(OCCCl)c(C#N)c1 [Compound A151]	> 2000 nM	–
CC(C)(c1ccc(OCc2ccnc(NS(C)(=O)=O)n2)cc1)c1cc(Cl)c(N2CCCC(F)(F)C2)c(C#N)c1 [Compound A152]	500 to 2000 nM	–
CC(C)(c1ccc(OCc2ccnc(NS(C)(=O)=O)n2)cc1)c1cc(Cl)c(N2CCC(F)CC2)c(C#N)c1 [Compound A153]	> 2000 nM	–
CS(=O)(=O)Nc1cnc2cc(-c3ccc(Oc4cc(F)c(OC5CC5)c(C#N)c4)cc3)ccc2n1 [Compound A154]	500 to 2000 nM	–
CS(=O)(=O)Nc1cnc2cc(-c3ccc(Oc4cc(F)c(OCCCl)c(C#N)c4)cc3)ccc2n1 [Compound A155]	500 to 2000 nM	–
CC(C)(c1ccc(OCc2ccnc(NS(C)(=O)=O)n2)cc1)c1cc(Cl)c(CN2CCOCC2)c(Cl)c1 [Compound A159]	> 2000 nM	–
CC(C)(c1ccc(OCc2ccnc(NS(C)(=O)=O)n2)cc1)c1cc(Cl)c(CN2CCCC(F)(F)C2)c(Cl)c1 [Compound A160]	> 2000 nM	–
CC1(O)CN(Cc2c(Cl)cc(C(C)(C)c3ccc(OCc4ccnc(NS(C)(=O)=O)n4)cc3)cc2Cl)C1 [Compound A161]	> 2000 nM	–
CN(c1ccc(OCc2ccnc(NS(C)(=O)=O)n2)cc1)c1cc(Cl)c(OCCCl)c(C#N)c1 [Compound A162]	500 to 2000 nM	–
CC(C)(c1ccc(OCc2ccnc(NS(C)(=O)=O)n2)cc1)c1cc(Cl)c(OC2CN(CC(F)(F)F)C2)c(C#N)c1 [Compound A165]	> 2000 nM	–

SMILES	IC50 (androgen receptor (AR) [1])	IC50 (androgen receptor (AR) [2])
CC(C)(c1ccc(OCc2ccnc(NS(C)(=O)=O)n2)cc1)c1cc(Cl)c(CN2CC(F)(F)C2)c(Cl)c1 [Compound A166]	500 to 2000 nM	–
COC1CN(c2c(Cl)cc(C(C)(C)c3ccc(OCc4ccnc(NS(C)(=O)=O)n4)cc3)cc2C#N)C1 [Compound A167]	> 2000 nM	–
CC(C)(c1ccc(OCc2ccnc(NS(C)(=O)=O)n2)cc1)c1cc(Cl)c(CCN2CC(F)(F)C2)c(C#N)c1 [Compound A168]	> 2000 nM	–
CC(C)(c1ccc(OCc2ccnc(NS(C)(=O)=O)n2)cc1)c1cc(Cl)c(CCN2CC(O)C2)c(C#N)c1 [Compound A169]	> 2000 nM	–
CC(C)(c1ccc(OCc2ccnc(NS(C)(=O)=O)n2)cc1)c1cnc(OCCCl)c(C#N)c1 [Compound A170]	> 2000 nM	–
CN(c1ccc(OCc2ccnc(NS(C)(=O)=O)n2)cc1)c1cc(C#N)c(OCCCl)cn1 [Compound A171]	> 2000 nM	–
CCCOc1c(Cl)cc(C(C)(C)c2ccc(OCc3ccnc(NS(C)(=O)=O)n3)cc2)cc1C#N [Compound A178]	< 500 nM	–
C=Cc1c(Cl)cc(C(C)(C)c2ccc(OCc3ccnc(NS(C)(=O)=O)n3)cc2)cc1C#N [Compound A179]	500 to 2000 nM	–
CC(C)(c1ccc(OCc2ccnc(NS(C)(=O)=O)n2)cc1)c1cc(Cl)c(OCCN2C(=O)CCCC2=O)c(C#N)c1 [Compound A180]	> 2000 nM	–
CC(C)(c1ccc(OCc2ccnc(NS(C)(=O)=O)n2)cc1)c1cc(Cl)c(OCc2cnccn2)c(C#N)c1 [Compound A181]	> 2000 nM	–
CC(C)(c1ccc(OCc2ccnc(NS(C)(=O)=O)n2)cc1)c1cc(Cl)c(OCc2ccccc2)c(C#N)c1 [Compound A182]	500 to 2000 nM	–
CC(C)(c1ccc(OCc2ccnc(NS(C)(=O)=O)n2)cc1)c1cc(Cl)c(OCCNS(C)(=O)=O)c(C#N)c1 [Compound A183]	> 2000 nM	–
CC(C)(c1ccc(OCc2ccnc(NS(C)(=O)=O)n2)cc1)c1cc(Cl)c(OCCN2CCNCC2)c(C#N)c1 [Compound A184]	> 2000 nM	–
CS(=O)(=O)Nc1nccc(COc2ccc(Cc3cc(Cl)c(OCCCl)c(C#N)c3)cc2)n1 [Compound A185]	> 2000 nM	–
CCCOc1c(Cl)cc(Oc2ccc(-c3ccc4nc(NS(C)(=O)=O)cnc4c3)cc2)cc1C#N [Compound A188]	–	500 to 2000 nM
CS(=O)(=O)Nc1cnc2cc(-c3ccc(Oc4cc(Cl)c(OCCC(F)(F)F)c(C#N)c4)cc3)ccc2n1 [Compound A189]	–	500 to 2000 nM
CS(=O)(=O)Nc1cc2ccc(-c3ccc(Oc4cc(Cl)c(OC5CC5)c(C#N)c4)cc3)cc2nn1 [Compound A192]	–	< 500 nM
CS(=O)(=O)Nc1cnc2ccc(-c3ccc(Oc4cc(Cl)c(OC5CC5)c(C#N)c4)cc3)cc2n1 [Compound A193]	–	500 to 2000 nM
N#Cc1cc(Oc2ccc(-c3ccc4nc(N)cnc4c3)cc2)cc(Cl)c1OC1CC1 [Compound A194]	–	> 2000 nM
CN(c1cnc2cc(-c3ccc(Oc4cc(Cl)c(OC5CC5)c(C#N)c4)cc3)ccc2n1)S(C)(=O)=O [Compound A195]	–	500 to 2000 nM
CS(=O)(=O)Nc1ncc(-c2ccc(Oc3cc(Cl)c(OC4CC4)c(C#N)c3)cc2)cn1 [Compound A196]	–	500 to 2000 nM
CC(C)(c1ccc(-c2cnc(NS(C)(=O)=O)nc2)cc1)c1cc(Cl)c(OC2CC2)c(C#N)c1 [Compound A197]	–	500 to 2000 nM
CNc1cnc2cc(-c3ccc(Oc4cc(Cl)c(OC5CC5)c(C#N)c4)cc3)ccc2n1 [Compound A200]	–	> 2000 nM
